Data published in patent US6518243B1, “Desleucyl glycopeptide antibiotics and methods of making same” (Trustees of Princeton University, priority 1999, dated 2003).

Legend:
Assay in all cases: Zone of inhibition screen, 96 well agar array format
Type in all cases: cell-based
Set-up in all cases: scale not given here
[1] = tested on: S. aureus (ATCC 29213)
In short: (§1)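 Antibacterial testing on a 96-well agar array; each compound screened separately.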

[2] = tested on: S. epidermidis (ATCC 12228)
In short: as §1

[3] = tested on: E. faecalis (CL 4877)
In short: as §1

[4] = zone of inhibition relative to 1 mg/ml p-chlorobiphenylvancomycin
[5] = zone of inhibition relative to 1 mg/ml stock solution of p-chlorobiphenylvancomycin

CC1OC(OC2C(Oc3c4cc5cc3Oc3ccc(cc3Cl)C(O)C3NC(=O)C(NC(=O)C5NC(=O)C(CC(N)=O)NC(=O)C(NC(=O)c5nccnc5C(N)=O)C(O)c5ccc(c(Cl)c5)O4)c4ccc(O)c(c4)-c4c(O)cc(O)cc4C(C(=O)O)NC3=O)OC(CO)C(O)C2O)CC(C)(NCc2ccc(-c3ccc(Cl)cc3)cc2)C1O (stereo not drawn) [Compound 283]
zone score, S. aureus ATCC 29213 [1, 4]: 2
zone score, S. epidermidis ATCC 12228 [2, 4]: 2

CC1OC(OC2C(Oc3c4cc5cc3Oc3ccc(cc3Cl)C(O)C3NC(=O)C(NC(=O)C5NC(=O)C(CC(N)=O)NC(=O)C(NC(=O)CC(N)C(N)=O)C(O)c5ccc(c(Cl)c5)O4)c4ccc(O)c(c4)-c4c(O)cc(O)cc4C(C(=O)O)NC3=O)OC(CO)C(O)C2O)CC(C)(NCc2ccc(-c3ccc(Cl)cc3)cc2)C1O (stereo not drawn) [Compound 59]
zone score, S. aureus ATCC 29213 [1, 5]: 2
zone score, S. epidermidis ATCC 12228 [2, 5]: 2
zone score, E. faecalis CL 4877 [3, 5]: 2

COc1ccc(CCC(=O)NC2C(=O)NC(CC(N)=O)C(=O)NC3C(=O)NC4C(=O)NC(C(=O)NC(C(=O)O)c5cc(O)cc(O)c5-c5cc4ccc5O)C(O)c4ccc(c(Cl)c4)Oc4cc3cc(c4OC3OC(CO)C(O)C(O)C3OC3CC(C)(NCc4ccc(-c5ccc(Cl)cc5)cc4)C(O)C(C)O3)Oc3ccc(cc3Cl)C2O)cc1OC (stereo not drawn) [Compound 245]
zone score, S. aureus ATCC 29213 [1, 4]: 2
zone score, S. epidermidis ATCC 12228 [2, 4]: 2
zone score, E. faecalis CL 4877 [3, 4]: 2

CC1OC(OC2C(Oc3c4cc5cc3Oc3ccc(cc3Cl)C(O)C3NC(=O)C(NC(=O)C5NC(=O)C(CC(N)=O)NC(=O)C(NC(=O)C5CCC(=O)O5)C(O)c5ccc(c(Cl)c5)O4)c4ccc(O)c(c4)-c4c(O)cc(O)cc4C(C(=O)O)NC3=O)OC(CO)C(O)C2O)CC(C)(NCc2ccc(-c3ccc(Cl)cc3)cc2)C1O (stereo not drawn) [Compound 227]
zone score, S. aureus ATCC 29213 [1, 4]: 2
zone score, S. epidermidis ATCC 12228 [2, 4]: 2

CC1OC(OC2C(Oc3c4cc5cc3Oc3ccc(cc3Cl)C(O)C3NC(=O)C(NC(=O)C5NC(=O)C(CC(N)=O)NC(=O)C(NC(=O)c5cc(=O)[nH]c(=O)[nH]5)C(O)c5ccc(c(Cl)c5)O4)c4ccc(O)c(c4)-c4c(O)cc(O)cc4C(C(=O)O)NC3=O)OC(CO)C(O)C2O)CC(C)(NCc2ccc(-c3ccc(Cl)cc3)cc2)C1O (stereo not drawn) [Compound 198]
zone score, S. aureus ATCC 29213 [1, 5]: 2
zone score, S. epidermidis ATCC 12228 [2, 5]: 2

CSCCC(NC(C)=O)C(=O)NC1C(=O)NC(CC(N)=O)C(=O)NC2C(=O)NC3C(=O)NC(C(=O)NC(C(=O)O)c4cc(O)cc(O)c4-c4cc3ccc4O)C(O)c3ccc(c(Cl)c3)Oc3cc2cc(c3OC2OC(CO)C(O)C(O)C2OC2CC(C)(NCc3ccc(-c4ccc(Cl)cc4)cc3)C(O)C(C)O2)Oc2ccc(cc2Cl)C1O (mixture of isomers) [Compound 175]
zone score, S. aureus ATCC 29213 [1, 5]: 2
zone score, S. epidermidis ATCC 12228 [2, 5]: 2

CC(=O)OCC(=O)NC1C(=O)NC(CC(N)=O)C(=O)NC2C(=O)NC3C(=O)NC(C(=O)NC(C(=O)O)c4cc(O)cc(O)c4-c4cc3ccc4O)C(O)c3ccc(c(Cl)c3)Oc3cc2cc(c3OC2OC(CO)C(O)C(O)C2OC2CC(C)(NCc3ccc(-c4ccc(Cl)cc4)cc3)C(O)C(C)O2)Oc2ccc(cc2Cl)C1O (stereo not drawn) [Compound 117]
zone score, S. aureus ATCC 29213 [1, 5]: 2
zone score, S. epidermidis ATCC 12228 [2, 5]: 2

CC1OC(OC2C(Oc3c4cc5cc3Oc3ccc(cc3Cl)C(O)C3NC(=O)C(NC(=O)C5NC(=O)C(CC(N)=O)NC(=O)C(NC(=O)c5ccco5)C(O)c5ccc(c(Cl)c5)O4)c4ccc(O)c(c4)-c4c(O)cc(O)cc4C(C(=O)O)NC3=O)OC(CO)C(O)C2O)CC(C)(NCc2ccc(-c3ccc(Cl)cc3)cc2)C1O (stereo not drawn) [Compound 240]
zone score, S. aureus ATCC 29213 [1, 4]: 2
zone score, S. epidermidis ATCC 12228 [2, 4]: 2

CC1OC(OC2C(Oc3c4cc5cc3Oc3ccc(cc3Cl)C(O)C3NC(=O)C(NC(=O)C5NC(=O)C(CC(N)=O)NC(=O)C(NC(=O)C(N)CCCCNC(N)=O)C(O)c5ccc(c(Cl)c5)O4)c4ccc(O)c(c4)-c4c(O)cc(O)cc4C(C(=O)O)NC3=O)OC(CO)C(O)C2O)CC(C)(NCc2ccc(-c3ccc(Cl)cc3)cc2)C1O (stereo not drawn) [Compound 78]
zone score, S. aureus ATCC 29213 [1, 5]: 2
zone score, S. epidermidis ATCC 12228 [2, 5]: 2

CCCCCCCCCCCCCC(=O)NCC(=O)N[C@H]1C(=O)N[C@@H](CC(N)=O)C(=O)N[C@H]2C(=O)N[C@H]3C(=O)N[C@H](C(=O)N[C@@H](C(=O)O)c4cc(O)cc(O)c4-c4cc3ccc4O)[C@H](O)c3ccc(c(Cl)c3)Oc3cc2cc(c3O[C@@H]2O[C@H](CO)[C@@H](O)[C@H](O)[C@H]2O[C@@H]2C[C@@](C)(NCc3ccc(-c4ccc(Cl)cc4)cc3)[C@@H](O)[C@@H](C)O2)Oc2ccc(cc2Cl)[C@H]1O [Compound 22]
zone score, S. aureus ATCC 29213 [1, 5]: 2
zone score, S. epidermidis ATCC 12228 [2, 5]: 2

CC1OC(OC2C(Oc3c4cc5cc3Oc3ccc(cc3Cl)C(O)C3NC(=O)C(NC(=O)C5NC(=O)C(CC(N)=O)NC(=O)C(NC(=O)C=NNC(N)=O)C(O)c5ccc(c(Cl)c5)O4)c4ccc(O)c(c4)-c4c(O)cc(O)cc4C(C(=O)O)NC3=O)OC(CO)C(O)C2O)CC(C)(NCc2ccc(-c3ccc(Cl)cc3)cc2)C1O (stereo not drawn) [Compound 289]
zone score, S. aureus ATCC 29213 [1, 4]: 2
zone score, S. epidermidis ATCC 12228 [2, 4]: 2

CC1OC(OC2C(Oc3c4cc5cc3Oc3ccc(cc3Cl)C(O)C3NC(=O)C(NC(=O)C5NC(=O)C(CC(N)=O)NC(=O)C(NC(=O)C5CCCO5)C(O)c5ccc(c(Cl)c5)O4)c4ccc(O)c(c4)-c4c(O)cc(O)cc4C(C(=O)O)NC3=O)OC(CO)C(O)C2O)CC(C)(NCc2ccc(-c3ccc(Cl)cc3)cc2)C1O (stereo not drawn) [Compound 316]
zone score, S. aureus ATCC 29213 [1, 4]: 2
zone score, S. epidermidis ATCC 12228 [2, 4]: 2

CC(=O)OC(CC(=O)NC1C(=O)NC(CC(N)=O)C(=O)NC2C(=O)NC3C(=O)NC(C(=O)NC(C(=O)O)c4cc(O)cc(O)c4-c4cc3ccc4O)C(O)c3ccc(c(Cl)c3)Oc3cc2cc(c3OC2OC(CO)C(O)C(O)C2OC2CC(C)(NCc3ccc(-c4ccc(Cl)cc4)cc3)C(O)C(C)O2)Oc2ccc(cc2Cl)C1O)C[N+](C)(C)C (mixture of isomers) [Compound 118]
zone score, S. aureus ATCC 29213 [1, 5]: 2
zone score, S. epidermidis ATCC 12228 [2, 5]: 2

CC1OC(OC2C(Oc3c4cc5cc3Oc3ccc(cc3Cl)C(O)C3NC(=O)C(NC(=O)C5NC(=O)C(CC(N)=O)NC(=O)C(NC(=O)CSCCS(=O)(=O)c5ccc(Cl)cc5)C(O)c5ccc(c(Cl)c5)O4)c4ccc(O)c(c4)-c4c(O)cc(O)cc4C(C(=O)O)NC3=O)OC(CO)C(O)C2O)CC(C)(NCc2ccc(-c3ccc(Cl)cc3)cc2)C1O (stereo not drawn) [Compound 300]
zone score, S. epidermidis ATCC 12228 [2, 4]: 2
zone score, E. faecalis CL 4877 [3, 4]: 2

C=CCOC(=O)NCCC(N)C(=O)NC1C(=O)NC(CC(N)=O)C(=O)NC2C(=O)NC3C(=O)NC(C(=O)NC(C(=O)O)c4cc(O)cc(O)c4-c4cc3ccc4O)C(O)c3ccc(c(Cl)c3)Oc3cc2cc(c3OC2OC(CO)C(O)C(O)C2OC2CC(C)(NCc3ccc(-c4ccc(Cl)cc4)cc3)C(O)C(C)O2)Oc2ccc(cc2Cl)C1O (stereo not drawn) [Compound 93]
zone score, S. aureus ATCC 29213 [1, 5]: 2
zone score, S. epidermidis ATCC 12228 [2, 5]: 2

CC1OC(OC2C(Oc3c4cc5cc3Oc3ccc(cc3Cl)C(O)C3NC(=O)C(NC(=O)C5NC(=O)C(CC(N)=O)NC(=O)C(NC(=O)C=Cc5ccco5)C(O)c5ccc(c(Cl)c5)O4)c4ccc(O)c(c4)-c4c(O)cc(O)cc4C(C(=O)O)NC3=O)OC(CO)C(O)C2O)CC(C)(NCc2ccc(-c3ccc(Cl)cc3)cc2)C1O (stereo not drawn) [Compound 244]
zone score, S. aureus ATCC 29213 [1, 4]: 2
zone score, S. epidermidis ATCC 12228 [2, 4]: 2

CC1OC(OC2C(Oc3c4cc5cc3Oc3ccc(cc3Cl)C(O)C3NC(=O)C(NC(=O)C5NC(=O)C(CC(N)=O)NC(=O)C(NC(=O)c5ccc(O)cc5)C(O)c5ccc(c(Cl)c5)O4)c4ccc(O)c(c4)-c4c(O)cc(O)cc4C(C(=O)O)NC3=O)OC(CO)C(O)C2O)CC(C)(NCc2ccc(-c3ccc(Cl)cc3)cc2)C1O (stereo not drawn) [Compound 271]
zone score, S. aureus ATCC 29213 [1, 4]: 2
zone score, S. epidermidis ATCC 12228 [2, 4]: 2

CSCCC(N)C(O)CC(=O)NC1C(=O)NC(CC(N)=O)C(=O)NC2C(=O)NC3C(=O)NC(C(=O)NC(C(=O)O)c4cc(O)cc(O)c4-c4cc3ccc4O)C(O)c3ccc(c(Cl)c3)Oc3cc2cc(c3OC2OC(CO)C(O)C(O)C2OC2CC(C)(NCc3ccc(-c4ccc(Cl)cc4)cc3)C(O)C(C)O2)Oc2ccc(cc2Cl)C1O (stereo not drawn) [Compound 31]
zone score, S. aureus ATCC 29213 [1, 5]: 2
zone score, S. epidermidis ATCC 12228 [2, 5]: 2

CC1OC(OC2C(Oc3c4cc5cc3Oc3ccc(cc3Cl)C(O)C3NC(=O)C(NC(=O)C5NC(=O)C(CC(N)=O)NC(=O)C(NC(=O)c5cccc(O)n5)C(O)c5ccc(c(Cl)c5)O4)c4ccc(O)c(c4)-c4c(O)cc(O)cc4C(C(=O)O)NC3=O)OC(CO)C(O)C2O)CC(C)(NCc2ccc(-c3ccc(Cl)cc3)cc2)C1O (stereo not drawn) [Compound 277]
zone score, S. epidermidis ATCC 12228 [2, 4]: 2
zone score, E. faecalis CL 4877 [3, 4]: 2

CC1OC(OC2C(Oc3c4cc5cc3Oc3ccc(cc3Cl)C(O)C3NC(=O)C(NC(=O)C5NC(=O)C(CC(N)=O)NC(=O)C(NC(=O)c5ccccc5F)C(O)c5ccc(c(Cl)c5)O4)c4ccc(O)c(c4)-c4c(O)cc(O)cc4C(C(=O)O)NC3=O)OC(CO)C(O)C2O)CC(C)(NCc2ccc(-c3ccc(Cl)cc3)cc2)C1O (stereo not drawn) [Compound 238]
zone score, S. aureus ATCC 29213 [1, 4]: 2
zone score, S. epidermidis ATCC 12228 [2, 4]: 2

CC1OC(OC2C(Oc3c4cc5cc3Oc3ccc(cc3Cl)C(O)C3NC(=O)C(NC(=O)C5NC(=O)C(CC(N)=O)NC(=O)C(NC(=O)CC(NC(=O)OC(C)(C)C)C(N)=O)C(O)c5ccc(c(Cl)c5)O4)c4ccc(O)c(c4)-c4c(O)cc(O)cc4C(C(=O)O)NC3=O)OC(CO)C(O)C2O)CC(C)(NCc2ccc(-c3ccc(Cl)cc3)cc2)C1O (stereo not drawn) [Compound 134]
zone score, S. epidermidis ATCC 12228 [2, 5]: 2
zone score, E. faecalis CL 4877 [3, 5]: 2

CC1OC(OC2C(Oc3c4cc5cc3Oc3ccc(cc3Cl)C(O)C3NC(=O)C(NC(=O)C5NC(=O)C(CC(N)=O)NC(=O)C(NC(=O)CC(N)C(N)=O)C(O)c5ccc(c(Cl)c5)O4)c4ccc(O)c(c4)-c4c(O)cc(O)cc4C(C(=O)O)NC3=O)OC(CO)C(O)C2O)CC(C)(NCc2ccc(-c3ccc(Cl)cc3)cc2)C1O (stereo not drawn) [Compound 74]
zone score, S. aureus ATCC 29213 [1, 5]: 2
zone score, S. epidermidis ATCC 12228 [2, 5]: 2

CC(=O)CCC(=O)NC1C(=O)NC(CC(N)=O)C(=O)NC2C(=O)NC3C(=O)NC(C(=O)NC(C(=O)O)c4cc(O)cc(O)c4-c4cc3ccc4O)C(O)c3ccc(c(Cl)c3)Oc3cc2cc(c3OC2OC(CO)C(O)C(O)C2OC2CC(C)(NCc3ccc(-c4ccc(Cl)cc4)cc3)C(O)C(C)O2)Oc2ccc(cc2Cl)C1O (stereo not drawn) [Compound 295]
zone score, S. epidermidis ATCC 12228 [2, 4]: 2
zone score, E. faecalis CL 4877 [3, 4]: 2
